Tests used:
Format in all cases: in vivo
[1] = tested on: corn (Zea mays); test: Test C preemergence, corn; details: 0 is no effect, 100 is complete control
Summary of the method: (§1)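 Plants grown in a sand and loam soil blend received the formulated test chemicals either as a preemergence soil-directed spray or postemergence at 2 to 10 cm height. After 10 or 12 greenhouse days, injury was assessed visually, with 100 meaning complete control.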

[2] = tested on: blackgrass (Alopecurus myosuroides); test: Test C preemergence, blackgrass; details: 0 is no effect, 100 is complete control
Summary of the method: (§2)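 Steps: sow in loam soil blended with sand; treat soil preemergence by directed spray, or treat young plants (2–10 cm, one to two leaves) postemergence; hold in greenhouse 10 or 12 days; rate injury visually relative to untreated controls on a 0–100 scale.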

[3] = tested on: oat, wild (wild oat, Avena fatua); test: Test C preemergence, wild oat; details: 0 is no effect, 100 is complete control
Summary of the method: as §2

[4] = tested on: wheat (Triticum aestivum); test: Test C preemergence, wheat; details: 0 is no effect, 100 is complete control
[5] = tested on: pigweed, palmer (palmer amaranth, Amaranthus palmeri); test: Test C preemergence, palmer amaranth; details: 0 is no effect, 100 is complete control
Summary of the method: as §2

[6] = tested on: galium (catchweed bedstraw, Galium aparine); test: Test C postemergence, galium; details: for Galium plant response rating: 31 g ai/ha Postemergence, visual injury, 0 to 100 scale (0 no effect, 100 complete control); for Plant response rating (0 to 100 scale), Galium: 125 g ai/ha Postemergence, 0 is no effect, 100 is complete control
[7] = tested on: ryegrass, Italian (Italian ryegrass, Lolium multiflorum); test: Test C preemergence, Italian ryegrass; details: 0 is no effect, 100 is complete control
Summary of the method: as §2

[8] = tested on: goosegrass (Eleusine indica); test: Test C preemergence, goosegrass; details: 0 is no effect, 100 is complete control
Summary of the method: as §1

[9] = tested on: horseweed (Erigeron canadensis); test: Test C postemergence, horseweed; details: for Horseweed plant response rating: 31 g ai/ha Postemergence, visual injury, 0 to 100 scale (0 no effect, 100 complete control); for Plant response rating (0 to 100 scale), Horseweed: 125 g ai/ha Postemergence, 0 is no effect, 100 is complete control
Summary of the method: as §2

Structure (SMILES)	Plant response rating (0 to 100 scale), Corn ([1]; 31 g ai/ha Preemergence)	Plant response rating (0 to 100 scale), Corn ([1]; 125 g ai/ha Preemergence)	Plant response rating (0 to 100 scale), Blackgrass ([2]; 31 g ai/ha Preemergence)	Plant response rating (0 to 100 scale), Blackgrass ([2]; 125 g ai/ha Preemergence)	Plant response rating (0 to 100 scale), Oat, Wild ([3]; 31 g ai/ha Preemergence)	Plant response rating (0 to 100 scale), Oat, Wild ([3]; 125 g ai/ha Preemergence)	Plant response rating (0 to 100 scale), Wheat ([4]; 31 g ai/ha Preemergence)	Plant response rating (0 to 100 scale), Wheat ([4]; 125 g ai/ha Preemergence)	Plant response rating (0 to 100 scale), Pigweed, Palmer ([5]; 31 g ai/ha Preemergence)	Plant response rating (0 to 100 scale), Pigweed, Palmer ([5]; 125 g ai/ha Preemergence)	Galium plant response rating [6]	Plant response rating (0 to 100 scale), Galium [6]	Plant response rating (0 to 100 scale), Ryegrass, Italian ([7]; 31 g ai/ha Preemergence)	Plant response rating (0 to 100 scale), Ryegrass, Italian ([7]; 125 g ai/ha Preemergence)	Plant response rating (0 to 100 scale), Goosegrass ([8]; 31 g ai/ha Preemergence)	Plant response rating (0 to 100 scale), Goosegrass ([8]; 125 g ai/ha Preemergence)	Horseweed plant response rating [9]	Plant response rating (0 to 100 scale), Horseweed [9]
Cc1cc(C)c(N2CCC(OC3CC3)C2=O)cc1NS(=O)(=O)C(F)(F)F (single isomer, unassigned) [Compound 29]	80	90	90	90	90	90	90	100	100	100	80	100	100	100	100	100		
Cc1cc(C)c(N2CCC(OC3CC3)C2=O)cc1NS(=O)(=O)C(F)(F)F (single isomer, unassigned) [Compound 30]	90	90	80	100	80	100	90	100	100	100	80	100	100	100	90	100		
C=CCO/N=C1\CCN(c2cc(NS(=O)(=O)C(F)(F)F)c(C)cc2C)C1=O [Compound 11]	50	100	60	100	30	100	90	100	70	100	80	100	40	90	100	100	20	70
CCO/N=C1\CCN(c2cc(NS(=O)(=O)C(F)(F)F)c(C)cc2C)C1=O [Compound 12, N-[5-[3-(ethoxyimino)-2-oxo-1-pyrrolidinyl]-2,4-dimethylphenyl]-1,1,1-trifluoromethanesulfonamide]	70	100	80	100	90	100	90	100	100	100	100	100	90	100	90	100	90	100
Cc1cc(C)c(N2CCC(O)C2=O)cc1NS(=O)(=O)C(F)(F)F (centres unmarked) [Compound 14]	10	100	60	90	10	60	50	100	90	100	100	100	40	100	90	100	90	90

— patent publication US20240158348A1, “HERBICIDAL CYCLIC AMIDES N-SUBSTITUTED WITH A HALOALKYLSULFONYLANILIDE GROUP” (FMC Corporation, priority 2021, published 2024)
